Results from patent publication US20090136448A1, “Antiviral 2-Carboxy-Thiophene Compounds” (priority 2005, published 2009).

Key:
[1] = system: HCV replication, genotype 1a (Huh-7 HCV replicon cell); experiment: Replicon ELISA cell based assay, genotype 1a; conditions: Hepatitis C virus, Huh-7 HCV replicon cells, 72 hours, mean, assayed at least twice
Protocol: (§1) Replicon ELISA Cell Based Assay
(§2) 100 μL of medium containing 10% FCS were added to each well of clear, flat-bottomed 96 well microplates, excepting wells in the top row. Test compound was diluted in assay medium to twice the final required starting concentration from a 40 mM stock solution in DMSO. 200 μL of the starting dilution were introduced into two wells each in the top row and doubling dilutions made down the plate by the sequential transfer of 100 μL aliquots with thorough mixing in the wells; the final 100 μL were discarded. The two bottom rows were not used for compound dilutions. Huh-7 HCV replicon cell monolayers nearing confluency were stripped from growth flasks with versene-trypsin solution and the cells were resuspended in assay medium at either 2×10^5 cells/mL (sub-line 5-15; genotype 1b; Lohmann, V., Korner, F., Koch, J-O., Herian, U., Thielmann, L. and Bartenschlager, R., Science, 1999, 285, 110-113) or at 3×10^5 cells/mL (genotype 1a; Gu, B., Gates, A. T., Isken, O., Behrens, S. E. and Sarisky, R. T., J. Virol., 2003, 77, 5352-5359). 100 μL of cell suspension were added to all wells and the plates incubated at 37° C. for 72 hours in a 5% CO2 atmosphere.
(§3) Following incubation, the assay medium was aspirated from the plates. The cell sheets were washed by gentle immersion in phosphate buffered saline (PBS), which was then aspirated off, and fixed with acetone:methanol (1:1) for 5 minutes. Following a further wash with PBS, 100 μL of ELISA diluent (PBS+0.05% v/v Tween 20+2% w/v skimmed milk powder) were added to all wells and the plates incubated at 37° C. for 30 minutes on an orbital platform. The diluent was removed and each well then received 50 μL of a 1/200 dilution of anti-HCV specific, murine, monoclonal antibody (either Virostat #1872 or #1877), except for wells in one of the compound-free control rows which received diluent alone to act as negative controls. The plates were incubated at 37° C. for 2 hours and washed 3 times with PBS/0.05% Tween 20, then 50 μL of horseradish peroxidase conjugated, anti-mouse, rabbit polyclonal serum (Dako #P0260), diluted 1/1000, were added to all wells. The plates were incubated for a further hour, the antibody removed and the cell sheets washed 5 times with PBS/Tween and blotted dry. The assay was developed by the addition of 50 μL of ortho-phenylenediamine/peroxidase substrate in urea/citrate buffer (SigmaFast, Sigma #P-9187) to each well, and colour allowed to develop for up to 15 minutes. The reaction was stopped by the addition of 25 μL per well of 2 M sulphuric acid and the plates were read at 490 nm on a Fluostar Optima spectrophotometer.
(§4) The substrate solution was removed and the plates were washed in tap water, blotted dry and the cells stained with 5% carbol fuchsin in water for 30 minutes. The stain was discarded and the cell sheets washed, dried and examined microscopically to assess cytotoxicity.
(§5) The absorbance values from all compound-free wells that had received both primary and secondary antibodies were averaged to obtain a positive control value. The mean absorbance value from the compound-free wells that had not received the primary antibody was used to provide the negative (background) control value. The readings from the duplicate wells at each compound concentration were averaged and, after the subtraction of the mean background from all values, were expressed as a percentage of the positive control signal. The quantifiable and specific reduction of expressed protein detected by the ELISA in the presence of a drug can be used as a measure of replicon inhibition. GraFit software (Erithacus Software Ltd.) was used to plot the curve of percentage inhibition against compound concentration and derive the 50% inhibitory concentration (IC50) for the compound.

[2] = system: HCV replication, genotype 1b (Huh-7 HCV replicon cell, sub-line 5-15); experiment: Replicon ELISA cell based assay, genotype 1b; conditions: Hepatitis C virus, Huh-7 HCV replicon cells, genotype 1b (sub-line 5-15), 72 hours, mean, assayed at least twice
Protocol: as §1, §2, §3, §4, §5

SMILES | IC50 [1] | IC50 [2]
CC(C)N(c1cc(-c2ccccc2)sc1C(=O)O)C(=O)[C@H]1CC[C@H](C)CC1 [Compound A, 5-Phenyl-3-[[(trans-4-methylcyclohexyl)carbonyl](1-methylethyl)amino]-2-thiophenecarboxylic acid, reference compound] | 1 to 5 µM | 0.1 to 0.5 µM
CC(C)N(c1cc(-c2ccc(Cl)cc2)sc1C(=O)O)C(=O)[C@H]1CC[C@H](C)CC1 [Compound B, 5-(4-Chlorophenyl)-3-[[(trans-4-methylcyclohexyl)carbonyl](1-methylethyl)amino]-2-thiophenecarboxylic acid, reference compound] | 1 to 5 µM | 1 to 5 µM
CC(C)N(c1cc(-c2ccc(-c3ccc(Cl)cc3)cc2)sc1C(=O)O)C(=O)[C@H]1CC[C@H](C)CC1 [Compound C, 5-(4′-Chloro-4-biphenylyl)-3-[[(trans-4-methylcyclohexyl)carbonyl](1-methylethyl)amino]-2-thiophenecarboxylic acid, reference compound] | 1 to 5 µM | > 5 µM
CC(C)N(c1cc(-c2ccc(C#N)cc2)sc1C(=O)O)C(=O)[C@H]1CC[C@H](C)CC1 [Compound D, 5-(4-Cyanophenyl)-3-[[(trans-4-methylcyclohexyl)carbonyl](1-methylethyl)amino]-2-thiophenecarboxylic acid, reference compound] | 1 to 5 µM | 1 to 5 µM
CC(=O)c1ccc(-c2cc(N(C(=O)[C@H]3CC[C@H](C)CC3)C(C)C)c(C(=O)O)s2)cc1 [Compound E, 5-(4-Acetylphenyl)-3-[[(trans-4-methylcyclohexyl)carbonyl](1-methylethyl)amino]-2-thiophenecarboxylic acid, reference compound] | 1 to 5 µM | 1 to 5 µM
CC(C)N(C(=O)c1ccc(Cl)cc1Cl)c1cc(-c2ccc(-c3nnn[nH]3)cc2)sc1C(=O)O [Compound F, 3-[[(2,4-Dichlorophenyl)carbonyl](1-methylethyl)amino]-5-[4-(1H-tetrazol-5-yl)phenyl]-2-thiophenecarboxylic acid, reference compound] | 1 to 5 µM | > 5 µM
CC(C)N(c1cc(-c2ccc(-c3cc4ncccc4o3)cc2)sc1C(=O)O)C(=O)[C@H]1CC[C@H](C)CC1 [Example 1, 5-(4-Furo[3,2-b]pyridin-2-ylphenyl)-3-[[(trans-4-methylcyclohexyl)carbonyl](1-methylethyl)amino]-2-thiophenecarboxylic acid] | 0.01 to 0.05 µM | 0.01 to 0.05 µM
CC(C)N(c1cc(-c2ccc(-c3cc4ncccn4n3)cc2)sc1C(=O)O)C(=O)[C@H]1CC[C@H](C)CC1 [Example 2, 3-[[(trans-4-Methylcyclohexyl)carbonyl](1-methylethyl)amino]-5-(4-pyrazolo[1,5-a]pyrimidin-2-ylphenyl)-2-thiophenecarboxylic acid] | 0.01 to 0.05 µM | 0.01 to 0.05 µM
CC(C)N(c1cc(-c2ccc(-c3cn4ccccc4n3)cc2)sc1C(=O)O)C(=O)[C@H]1CC[C@H](C)CC1 [Example 3, 5-(4-Imidazo[1,2-a]pyridin-2-ylphenyl)-3-[[(trans-4-methylcyclohexyl)carbonyl](1-methylethyl)amino]-2-thiophenecarboxylic acid] | 0.05 to 0.1 µM | 0.01 to 0.05 µM
CC(C)N(c1cc(-c2ccc(-c3cn4ccsc4n3)cc2)sc1C(=O)O)C(=O)[C@H]1CC[C@H](C)CC1 [Example 4, 5-(4-Imidazo[2,1-b][1,3]thiazol-6-ylphenyl)-3-[[(trans-4-methylcyclohexyl)carbonyl](1-methylethyl)amino]-2-thiophenecarboxylic acid] | 0.05 to 0.1 µM | 0.01 to 0.05 µM
Cc1cc(N)n2nc(-c3ccc(-c4cc(N(C(=O)[C@H]5CC[C@H](C)CC5)C(C)C)c(C(=O)O)s4)cc3)cc2n1 [Example 5, 5-[4-(7-Amino-5-methylpyrazolo[1,5-a]pyrimidin-2-yl)phenyl]-3-[[(trans-4-methylcyclohexyl)carbonyl](1-methylethyl)amino]-2-thiophenecarboxylic acid] | < 0.005 µM | < 0.005 µM
Cc1ccn2nc(-c3ccc(-c4cc(N(C(=O)[C@H]5CC[C@H](C)CC5)C(C)C)c(C(=O)O)s4)cc3)cc2n1 [Example 6, 3-[[(trans-4-Methylcyclohexyl)carbonyl](1-methylethyl)amino]-5[4-(5-methylpyrazolo[1,5-a]pyrimidin-2-yl)phenyl]-2-thiophenecarboxylic acid] | 0.05 to 0.1 µM | 0.01 to 0.05 µM
CC(C)N(c1cc(-c2ccc(-c3cc4nccc(N)n4n3)cc2)sc1C(=O)O)C(=O)[C@H]1CC[C@H](C)CC1 [Example 7, 5-[4-(7-Aminopyrazolo[1,5-a]pyrimidin-2-yl)phenyl]-3-[[(trans-4-methylcyclohexyl)carbonyl](1-methylethyl)amino]-2-thiophenecarboxylic acid] | < 0.005 µM | < 0.005 µM
CC(C)N(c1cc(-c2ccc(-c3nc4ncccc4o3)cc2)sc1C(=O)O)C(=O)[C@H]1CC[C@H](C)CC1 [Example 8, 3-[[(4-Methylcyclohexyl)carbonyl](1-methylethyl)amino]-5-(4-[1,3]oxazolo[4,5-b]pyridin-2-ylphenyl)-2-thiophenecarboxylic acid] | 0.01 to 0.05 µM | 0.01 to 0.05 µM
CC(C)N(c1cc(-c2ccc(-c3cnc4occc4c3)cc2)sc1C(=O)O)C(=O)[C@H]1CC[C@H](C)CC1 [Example 9, 5-(4-Furo[2,3-b]pyridin-5-ylphenyl)-3-[[(trans-4-methylcyclohexyl)carbonyl](1-methylethyl)amino]-2-thiophenecarboxylic acid] | 0.1 to 0.5 µM | 0.05 to 0.1 µM
CC(C)N(c1cc(-c2ccc(-c3nc4cc(N)ccc4o3)cc2)sc1C(=O)O)C(=O)[C@H]1CC[C@H](C)CC1 [Example 10, 5-[4-(5-Amino-1,3-benzoxazol-2-yl)phenyl]-3-[[(trans-4-methylcyclohexyl)carbonyl](1-methylethyl)amino]-2-thiophenecarboxylic acid] | 0.05 to 0.1 µM | 0.1 to 0.5 µM
CC(C)N(c1cc(-c2ccc(-c3nc4cccnc4o3)cc2)sc1C(=O)O)C(=O)[C@H]1CC[C@H](C)CC1 [Example 11, 3-[[(4-Methylcyclohexyl)carbonyl](1-methylethyl)amino]-5-(4-[1,3]oxazolo[5,4-b]pyridin-2-ylphenyl)-2-thiophenecarboxylic acid] | 0.1 to 0.5 µM | 0.1 to 0.5 µM
CC(C)N(c1cc(-c2ccc(-c3cc4cnccc4o3)cc2)sc1C(=O)O)C(=O)[C@H]1CC[C@H](C)CC1 [Example 12, 5-(4-Furo[3,2-c]pyridin-2-ylphenyl)-3-[[(trans-4-methylcyclohexyl)carbonyl](1-methylethyl)amino]-2-thiophenecarboxylic acid] | 0.1 to 0.5 µM | 0.05 to 0.1 µM
CC(C)N(c1cc(-c2ccc(-c3cc4cnccc4o3)cc2)sc1C(=O)O)C(=O)[C@H]1CC[C@H](C)CC1 [Example 13, Sodium 5-(4-furo[3,2-c]pyridin-2-ylphenyl)-3-[[(trans-4-methylcyclohexyl)carbonyl](1-methylethyl)amino]-2-thiophenecarboxylate] | 0.1 to 0.5 µM | 0.1 to 0.5 µM
CC(C)N(c1cc(-c2ccc(-c3cn4ccccc4n3)cc2)sc1C(=O)O)C(=O)[C@H]1CC[C@H](C(F)(F)F)CC1 [Example 14, 5-(4-Imidazo[1,2-a]pyridin-2-ylphenyl)-3-((1-methylethyl){[trans-4-(trifluoromethyl)cyclohexyl]carbonyl}amino)-2-thiophenecarboxylic acid] | 0.1 to 0.5 µM | 0.5 to 1 µM
